One block for each molecule: values may come before it. Square brackets hold non-standard residues; d marks the D form. Ends that are not written are not given here. pGlu = O=C1CC[C@@H](C(=O)O)N1
How the values were obtained:
[1] = Chromatographic characterization of radioactive peptide uptake by tissues; format: in vivo, rat; settings: 180 min after injection
Method: The chromatographic characteristics of the labeled compound associated, in vivo, to target organs were assessed by HPLC.
At selected time points (2 and 180 min.) after administration of tritiated pentapeptide, the anesthetized rats were sacrificed (cardiac blood puncture) and tissues quickly removed on ice. The tissues were immediately homogenized at 4° C. in 5-10 volumes of 0.1 M chlorhydric acid using a potter homogenizer (demineralization of bone tissue was realized after 24-48 h at 4° C. in guanidium hydrochloride and EDTA pretreatment, 4 M and 0.25 M final concentration, respectively). Homogenates were centrifuged for 30 min. at 4° C. and 15,000 g. To determine total radioactivity, aliquots of the supernatant solution were added to 50 volumes of Biofluor (NEN, Dupont de Nemours, France) and counted in a liquid scintillation counter.
To determine the radioactivity in the pentapeptide fraction, aliquots of the tissue extracts were submitted to a methanol-extraction procedure (Rougeot et al., 1994) after neutralization with Tris/HCl pH 8.5 containing 16 mM DTPA (DiethyleneTriaminePenta-Acetic acid, Sigma, France). […] Fractions were collected every 60 sec. and analyzed for radioactivity using a liquid scintillation counter.

[2] = Pentapeptide metabolic and pharmacokinetic studies after i.v. bolus of tritiated pentapeptide; format: in vivo, rat
Method: The in vivo time course of distribution, metabolism and elimination of the pentapeptide was investigated in anesthetized adult male rats using physiological concentrations of circulating tritiated pentapeptide.
Anesthetized male rats were given a bolus intravenous injection of 170 pmoles or 110 ng tritiated pentapeptide diluted in 100 μl PBS Dulbecco's. Blood was collected in tubes containing a mixture of peptidase inhibitors described above, via a silastic catheter implanted into the external jugular vein. Blood was withdrawn just before and 2, 4, 6, 8, 10, 20, 30, 45, 60, 90 and 120 min. after peptide administration. Two milliliters of blood per rat were taken in all and the entire urinary bladder content was collected at a last selected point.
The biological samples were submitted to centrifugation and Parapak Q extraction conditions, as described above. Chromatrography using HPLC procedure described above and in the reference (Rougeot et al., 1994) was then applied to each extracted sample. The ODS AQ RP-C18 was used for identification of amino-terminal metabolites and Pep RPC HR C18 (Pharmacia, France) for identification of carboxyl-terminal metabolites. The radioactivity content of samples before and after chromatographic separations was determined using a beta counter (Kontron, MR300).

[3] = test system: pentapeptide binding sites; experiment: In vivo displacement of ^3H-pentapeptide uptake by coinjection of 100-fold excess unlabeled peptide; design: species or system rat; settings: for specific labeling percentage: 60 min, 100-fold excess unlabeled peptide
Description: Biological receptor sites have two essential characteristics that allow specific binding to be identified, in vivo; they have a high affinity for the ligand and the binding is saturable (Whitcomb et al., 1993). Therefore, displacement experiments, using parallel systemic administration of an excess of the corresponding unlabeled peptide has been performed. Furthermore, the specific cellular localization of labeled pentapeptide to target tissues has been identified by section microscopic autoradiography.
(§1) The cellular-site localization for physiological concentrations of labeled pentapeptide was investigated by paraffin- or resin-section microscopic autoradiography procedure. Sixty minutes after ^3H-pentapeptide (555 KBq, 160 ng or 250 pmoles) i.v. administration, the anesthetized male rats were perfused via the jugular veins with ice-cold Krebs Ringer Bicarbonate Glucosed buffer and then 0.5% paraformaldehyde/0.5% glutaraldehyde fixative PBS buffer (plus glucose 1.6%, CaCl2 0.002% and DMSO 1%) (50 ml/5 min. for each). Tissues were rapidly removed and harvested for paraffin sectioning (Paraplast plus-Sherwood medical, OSI, France) or for resin sectioning (histo-resin Leica, France). All sections were cut at 5 microns (Reichert Jung for paraffin and RM2155 Leica for resin sections) and mounted on Superfrost/Plus glass slides (non gelatin-coated). Paraffin was removed with xylene, and sections were carried through a descending, then an ascending ethanol series (from 100 to 50%, V/V and reverse). Dried sections were then processed for light microscope autoradiography by attaching nuclear emulsion-coated (Kodak, NTB2, diluted 1:1 with distilled water) coverslips to them. After air drying for 2 hrs at room temperature the autoradiographs were exposed for 6 to 10 weeks in light-tight boxes at 4° C. Radiosensitive coverslips were developed in Kodak D19 (3 min.) developer and fixed in Kodak fixer (3 min.) Sections were counterstained with Harris' hematoxylin (Prolabo, France) and Toluidine blue (Sigma, France), dehydrated and mounted in Eukitt medium. The tissue and overlying silver grains were viewed and photographed with a Leica photomicroscope equipped with bright-field optics (DMRD Leitz, Leica).
The tritium activity was determined as counts/mm^2.
In the case of radioactive quantification of organ sections or acid extracts, using a liquid scintillation counter (MR300Kontron), the tritium activity was determined as cpm/mg protein. Protein concentration was determined by the Bradford method (Bradford et al., 1976).

[4] = test system: ^3H-pentapeptide binding sites; experiment: Cellular localization of ^3H-pentapeptide binding sites by light microscopic autoradiography; format: in vivo, rat
Method: as §1

[5] = rat, in vivo
Method: Labeled compound i.e. 6.66 MBq, 3 nmoles or 2 mg for whole body autoradiography (WBA) and 370-555 KBq, 170-250 pmoles or 110-160 ng for the pharmacokinetic and cellular-site distribution studies was diluted in 100-200 ml of phosphate-buffered saline (PBS Dulbecco's, Bio Media, France) and administered intravenously into the jugular vein of anesthetized rats (halothan for WBA or pentobarbital for all the other experiments).
The target tissues for the final secretory maturation product of SMR1, the pentapeptide, was examined, in vivo, by the whole body autoradiography procedure according to the method of Ullberg (Ullberg et al., 1981).
The five week-old rats were sacrificed under halothane, at 90 sec., 3, 60 and 240 min. after i.v. injection of 3 nmoles (6.66 MBq or 2 μg) of tritiated pentapeptide. At the selected time, the restrained animal was immediately immersed in a −80° C. mixture of dry ice and isopentane, to prevent artifactual tracer redistribution. After 48 hours in self-sealing plastic stored at −30° C., the animal was then blocked in mounting medium. Whole body sagittal sections (20 mm) of the frozen rat were made at −30° C. with a cryostat (whole body slicing microtome Leitz 400 with a chest mobile freezer Leitz O M, Leica, France). Sections adhering to Scotch tape were left in a freezer, temperature −30° C., for 4 days to insure complete drying. The tapes were placed in a film cassette with ^3H Hyperfilm (Amersham, France) at −20° C. After two weeks the films were developed in Kodak D19 developer and fixed in Kodak fixer.
Data from whole body sections or individual organ sections placed in the gas-chamber detector were collected for 8 hr. or 50 hr., respectively. The number of counts per pixel was recorded in the β imager 2200 (Biospace, France) with a surface detector of 20×20 cm^2, followed by computer-assisted image analysis with the β Vision program using a HP Vectra computer. The tritium activity was determined as counts/mm^2. The linearity of this method of detection allowed measurement of the non specific binding of ^3H-pentapeptide, measured in various structures or compartments within the section with apparent non binding sites for the peptide (background tissues, e.g. muscle and cardiac blood except brain and spinal cord) or in the same labeled structure, in displacement experiments.

[6] = rat, in vivo; remark: listed apart in the source
Method: FIG. 4. Quantitative profile of radioactivity in various tissues following administration of 100 pmoles ^3H-hexapeptide, 60 min post-dose or plus 100 nmoles unlabelled peptide to non specific binding.
Quantification was assessed using a spectrometer and calculated as cpm/mg protein from whole tissue extracts.
FIG. 5. Quantitative profile of radioactivity in various tissues following administration of 5 pmoles ^125I-undecapeptide (VRGPRRQHNPR, SEQ ID NO: 7), 10 min post-dose or plus 100 nmoles unlabeled peptide to non specific binding.
Quantification was assessed using a gama-spectrometer and calculated as cpm/g tissue.

[7] = target: anti-pentapeptide serum (rabbit antiserum raised against QHNPR conjugated to egg albumin); experiment: competitive liquid phase RIA, displacement of 125I-labelled pentapeptide from the antiserum
[8] = single i.v. injection of 110 ng

Molecule: RQHNPR [hexapeptide]
preferred target organs [6]: kidney and pancreas
retention by the glandular mucosa of stomach [6]: very efficiently retained
target organs compared with the pentapeptide [6]: almost the same as the target organs of the pentapeptide

Molecule: [pGlu]HNPR [(Glp1)-His-Asn-Pro-Arg]
amount of standard for 50% displacement [7]: < 570 fmol
detection limit (80% binding) [7]: 106 fmol

Molecule: QHNPR [(Gln1)-His-Asn-Pro-Arg, SMR1-derived pentapeptide QHNPR (unlabelled)]
amount of standard for 50% displacement [7]: < 570 fmol
detection limit (80% binding) [7]: 106 fmol

Further lines, with some results ahead:

radioactive extract representing metabolites ([1]; DTPA): 8±6%
radioactive peptide fraction extracted by methanol ([1]; DTPA 16 mM added): 53±9%
amount eliminated through glomerular filtration ([2]; over a 60 min period, anesthetized rats, 170 pmoles dose): 6 pmol
pentapeptide-binding substance complex as share of the circulating peptide fraction ([2]; plasma): approximately 45%
urine radioactivity that is pentapeptide metabolites ([2]; rat, in vivo): Approximately 80%
time from which plasma concentration is back close to a basal level [2, 8]: ≥ 30 min
time to maximal plasma level [2, 8]: ≤ 2 min
infused pentapeptide metabolized in the bloodstream ([2]; within 4 min): 35%
cellular localization of silver grains ([4]; bone tissue): the trabeculae bone spaces
cellular localization of silver grains ([4]; dental tissue, upper incisor root): over the entire dentin layer
cellular localization of silver grains ([4]; glandular gastric mucosa): over the chief or peptic cells
cellular label ([4]; glomeruli, epithelia of distal and collecting tubules): No specific cellular label
cellular label ([4]; pancreatic ducts and islets of Langerhans): No label was observed
cellular localization of silver grains ([4]; pancreatic tissue): over the cells of acini
radioactivity in the intestinal content [5]: No radioactivity was found
time by which binding to tissue sites has occurred [5]: ≤ 90 s
time over which binding is stable [5]: 240 min
tissue to blood ratio [5]: ~2
Molecule: QHNPR [pentapeptide, (Gln1)-His-Asn-Pro-Arg]
specific labeling percentage ([3]; glandular mucosa of the stomach): 38-61%
specific labeling percentage ([3]; long bone): 29-38%
specific labeling percentage ([3]; pancreatic lobules): 37-55%
displacement of uptake by excess cold ligand ([3]; renal outer medullary): almost complete displacement
specific labeling percentage ([3]; submandibular lobules): 51-91%
cellular localization of silver grains ([4]; kidney, 60 min, physiological concentration): over the epithelial cells of the S3 segment of the straight portion of the proximal tubules
cellular label ([4]; submandibular tissue): no selective cell association of label was identifiable

preferred target organs [6]: kidney and pancreas
Molecule: VRGPRRQHNPR [undecapeptide]
target organs compared with the pentapeptide [6]: almost the same as the target organs of the pentapeptide

cross-reactivity [7]: < 0.01%
Molecule: QHNP [tetrapeptide sequence (QHNP)]
